Assay results taken from ChEMBL document CHEMBL5346962, “Discovery of Sulanemadlin (ALRN-6924), the First Cell-Permeating, Stabilized α-Helical Peptide in Clinical Development” (J Med Chem, 2023).
Activity calls are given as the source filed them. The calls are words filed in the database; no cut-off is given here.

Columns and labels:
[1] = Plasma protein binding in human at 2 to 50 uM; type: ADME, cell-free; details: dose 2-50 µM, read-out: PPB (converted)
[2] = Cmax in cynomolgous monkey at 5 mg/kg by LC-MS/MS analysis; type: ADME, organism-based, Macaca fascicularis; design: dose 5 mg/kg; details: cynomolgus monkey, in vivo
[3] = Clearance in rat at 10 mg/kg by LC-MS/MS analysis; type: ADME, organism-based; details: in vivo
[4] = Plasma protein binding in human at 250 uM; type: ADME, cell-free; details: read-out: PPB (converted)
[5] = system: Fibroblast; assay: Protection against chemotherapy-induced apoptosis in human fibroblast assessed as decrease in caspase-3/7 level preincubated for 16 hrs followed by doxorubicin addition measured after 32 hrs; type: functional, cell-based; details: dose 4.6-10 µM, time 48.0 hrs
[6] = system: Bone marrow cell; assay: Downregulation of cPARP expression level in bone marrow cells of C57BL/6 mouse at 2.4 mg/kg, iv administered every 8 hrs measured for 16 hrs by immunohistochemical analysis; type: functional, organism-based
[7] = Plasma protein binding in mouse at 250 uM; type: ADME, cell-free; details: read-out: PPB (converted)
[8] = system: Bone marrow cell; assay: Upregulation of Puma mRNA level in bone marrow cells of C57BL/6 mouse at 10 mg/kg, iv measured for 24 hrs by qRT-PCR analysis; type: functional, organism-based
[9] = Plasma protein binding in rat at 2 to 50 uM; type: ADME, cell-free; details: dose 2-50 µM, read-out: PPB (converted)
[10] = Toxicity in monkey assessed as NOAEL administered twice weekly for 4 weeks; design: species or system Macaca mulatta; details: rhesus monkey, in vivo
[11] = system: Bone marrow cell; assay: Upregulation of serum MIC-1 level […] of C57BL/6 mouse at 2.4 mg/kg, iv administered every 8 hrs measured for 24 hrs by ELISA method; type: functional, organism-based
[12] = AUC (all) in rat at 5 mg/kg by LC-MS/MS analysis; type: ADME, organism-based; design: dose 5 mg/kg; details: in vivo
[13] = Half life in rat at 2.5 mg/kg by LC-MS/MS analysis; type: ADME, organism-based; details: in vivo
[14] = Cmax in rat at 5 mg/kg by LC-MS/MS analysis; type: ADME, organism-based; design: dose 5 mg/kg; details: in vivo
[15] = system: MV4-11; assay: Antitumor activity against human MV4-11 cells xenografted in athymic nu/nu mouse model of AML assessed as tumor growth inhibition; type: functional, cell-based
[16] = AUC (0 to 24 hrs) in tumor of athymic nu/nu mouse xenografted with human SJSA-1 cells at 25 mg/kg, iv measured for 24 hrs by LC-MS-MS analysis; type: ADME, organism-based, Neoplasm; design: dose 25 mg/kg, time 24 hrs, route iv; details: in vivo
[17] = AUC (0 to 24 hrs) in plasma of athymic nu/nu mouse xenografted with human SJSA-1 cells at 25 mg/kg, iv measured for 24 hrs by LC-MS-MS analysis; type: ADME, organism-based; design: time 24 hrs, dose 25 mg/kg, route iv; details: in vivo

## CC(=O)N[C@@H](CC(C)C)C(=O)N[C@H](C(=O)N[C@@H](Cc1ccccc1)C(=O)N[C@]1(C)CCCCCC/C=C/CCC[C@@](C)(C(=O)N[C@@H](C)C(=O)N[C@@H](C)C(=O)N[C@@H](C)C(=O)N[C@@H](C)C(=O)N[C@@H](C)C(=O)N[C@H](C)C(N)=O)NC(=O)[C@H](CC(C)C)NC(=O)[C@H](CCC(N)=O)NC(=O)[C@H](C)NC(=O)[C@H](Cc2c[nH]c3ccccc23)NC(=O)[C@H](Cc2ccc(O)cc2)NC(=O)[C@H](CCC(=O)O)NC1=O)[C@@H](C)O
[1]
  fraction unbound at up to 50 µM: 0.08
[2]
  Cmax: 137 µg/mL
[3]
  clearance: 0.317 mL/min/kg
[4]
  fraction unbound at 250 µM: 0.19
[5]
  Activity: Dose-Dependent Effect
[6]
  Activity: Active
[7]
  fraction unbound at 250 µM: 0.02
[8]
  Activity: Active
[9]
  fraction unbound at up to 50 µM: 0.08
[10]
  NOAEL at 672 h: 5 mg/kg
[11]
  Activity: Active
[12]
  AUC: 223 µg·h/mL
[13]
  half-life: 1.4 h
[14]
  Cmax: 95.9 µg/mL
[15]
  Activity: Dose-Dependent Effect
[16]
  AUC: 1 µg·h/g
[17]
  AUC: 3180 µg·h/mL
